Data from the METLIN SMRT retention time set (Domingo-Almenara et al. 2019).

Assay: gradient 5% acetonitrile 3 min, to 50% in 2 min, to 85% in 15 min, held 3 min, 100 µL/min
Conditions: column: Zorbax Extend-C18 2.1 x 50 mm; eluents: water / acetonitrile, 0.1% formic acid
Method in brief: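 A Zorbax Extend-C18 column (2.1 × 50 mm, 1.8 μm) run at 100 μL/min with water and acetonitrile, both containing 0.1% formic acid, separated mixtures of ~100 pure standards. The HPLC was coupled to a quadrupole time-of-flight mass spectrometer operated in positive and negative ionization mode, with dead and dwell volumes of 40 μL and 900 μL. Each retention time was taken from a computationally picked adduct peak that was then manually inspected.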

| Structure (SMILES) | RP-LC retention time |
| --- | --- |
| Cn1c(=O)n(-c2ccc(F)cc2)c2nc(-c3ccccc3Cl)nc(C(N)=O)c21 | 912 s |
| Cc1cccc(Sc2nccnc2N2CCC(C(=O)NCCC(C)C)CC2)c1 | 1100 s |
| CCCN(CC1CCOC1)C(=O)Nc1ccccc1OCC (stereo not given) | 903 s |
| Cc1cc(C)cc(Oc2nccn3c(=O)n(CC(=O)NC4CCCC4)nc23)c1 | 834 s |
| Cc1nc([C@@H]2CN(S(=O)(=O)C(C)C)C[C@H]2C(N)=O)n[nH]1 | 566 s |
| CCOc1ccccc1NC(=O)N1c2ccccc2CC1c1nc(C(C)C)no1 (stereo not given) | 1220 s |
| CC(C)NC(=O)C1CC(=O)N(c2n[nH]c3cccc(F)c23)C1 (stereo not given) | 621 s |
| O=C(NC1CC1)c1ccnc(N2CCNC(c3ccccc3)C2)c1 (stereo not given) | 583 s |
| CCS(=O)(=O)N1CCCCC1c1nc(-c2cccnc2)n[nH]1 (stereo not given) | 615 s |
| O=C(NCC1CCCCC1)c1ccc2ncnc(N3CCCC3)c2c1 | 675 s |
| CCc1noc(NC(C)=O)c1-c1ccc(OC)c(S(=O)(=O)Nc2ccc(Cl)cc2F)c1 | 842 s |
| O=C(NCc1ccccc1Cl)C(=O)N1CCN(Cc2ccc3c(c2)OCO3)CC1 | 583 s |
| CC1CCCN(CCCNC(=O)CCCN2C(=O)CCn3nc(-c4cccn4C)cc32)C1 (stereo not given) | 614 s |
| Cc1ccc(Cn2nc3ccc(S(=O)(=O)N4CCCCCC4)cn3c2=O)cc1 | 1010 s |
| CCN1CCCn2nc(C3CCN(C(=O)C4CCCC4)CC3)cc2C1=O | 686 s |
| c1ccc(-c2nc3nccc(-c4ccc5c(c4)OCO5)n3n2)cc1 | 905 s |
| Cc1ccc(-n2cc3c(N4CCCC(C(=O)NCc5ccc(F)cc5F)C4)ncnc3n2)cc1 (stereo not given) | 729 s |
| CSc1cccc(NC(=O)c2cn3c(n2)CCCC3)c1 | 630 s |
| O=C1NCCCn2cc(S(=O)(=O)Nc3ccc4c(c3)OCCO4)cc21 | 622 s |
| COc1ccc(N2CCN(C(=O)C3CCc4nc(N5CCCC5)ncc4C3)CC2)cc1 (stereo not given) | 626 s |
| COc1ccc(CNC(=O)c2cn3cc(Cl)ccc3n2)cc1OC | 749 s |
| CCC(=O)N(C1CCOCC1)C1CCN(S(=O)(=O)c2ccc(C(F)(F)F)cc2)CC1 | 892 s |
| COc1cccc(-c2nnc(Cc3nc(-c4cccs4)no3)o2)c1 | 929 s |

| Structure (SMILES) | RP-LC retention time |
| --- | --- |
| CCn1c(=O)c(N2CCC(C(=O)NCCc3c[nH]c4ccc(C)cc34)CC2)nc2ccccc21 | 966 s |
| Cc1ccc(C)c(CNC(=O)C2(c3ccc(NS(C)(=O)=O)cc3)CCCCC2)c1 | 973 s |
| COc1ccc(CNC(=O)C2CCN(c3cc(N4CCSCC4)ncn3)CC2)cc1 | 656 s |
| Cc1noc(-c2nc(-c3ccc(Cl)cc3)no2)n1 | 1070 s |
| O=C(N[C@H]1C[C@@H]2C[C@H]1N(C(=O)CSc1ccccc1)C2)c1ccccc1 | 786 s |
| CC(C)CC(=O)N1CCN(c2ccc(=O)n(-c3ccc(Cl)cc3)n2)CC1 | 809 s |
| O=C(CCc1c(-c2ccccc2)nc2ccccn12)NCc1ccccc1F | 652 s |
| CC(C)N1CCC2(CC1)CN(C(=O)NCc1ccco1)Cc1ccccc1O2 | 650 s |
| Fc1ccc(-c2ccc(CNc3ncn[nH]3)o2)cc1Cl | 692 s |
| COc1ccc(N2CC(c3nc(-c4ccc(OC)c(OC)c4)no3)CC2=O)c(OC)c1 (stereo not given) | 743 s |
| CCCn1cnnc1C1CCCCN1C(=O)CCc1c(C)nn(C)c1C (stereo not given) | 589 s |
| CC(C)NC(=O)c1nnc(-c2ccc(S(=O)(=O)N3CCCC3)cc2)o1 | 779 s |
| Cc1cc(=O)n(CC(=O)NC(C)C)c(N2CCc3ccccc3C2)n1 | 665 s |
| CN(C)CC(=O)N1CCc2[nH]nc(-c3ccc(F)cc3)c2C1 | 588 s |
| Cc1ccc(N2C(=O)C3N=NN(Cc4nc(-c5cccc(C(F)(F)F)c5)no4)C3C2=O)cc1 (stereo not given) | 1080 s |
| O=C(Cc1ccccc1Cl)N1CCCN(c2nc3cccnc3o2)CC1 | 716 s |
| O=C(Cn1cnc2nc(N3CCCC(C(=O)NC4CC4)C3)sc2c1=O)Nc1ccccc1 (stereo not given) | 663 s |
| O=c1n(Cc2ccccc2Cl)nc2ccc(S(=O)(=O)N3CCCC3)cn12 | 866 s |
| CN1C(=O)CO[C@@H](C(=O)N2CCN(c3ccccc3)CC2)[C@@H]1c1ccccc1 | 796 s |
| CCc1ccccc1NC(=O)Cn1c(N)nc(CC)c(C)c1=O | 633 s |
| Cc1cc(C)cc(NC(=O)N2CCC(n3cnc4c(C)cccc4c3=O)CC2)c1 | 911 s |
| CC(C)C(=O)Nc1ccc(-n2cnc(C(=O)NC3CCCCC3)c2)nc1 | 765 s |
| O=S(=O)(c1cccn2cnnc12)N(Cc1ccccc1F)c1ccc(F)c(F)c1 | 867 s |

| Structure (SMILES) | RP-LC retention time |
| --- | --- |
| COc1ccc(OC)c(NC(=O)NC2CCN(c3ccccc3)C2=O)c1 (stereo not given) | 788 s |
| CCCC(O)c1nc2ccccc2n1CC(=O)N(c1ccccc1)C(C)C (stereo not given) | 734 s |
| CNC(=O)N1CCCN(C2=NS(=O)(=O)C(c3ccc(F)cc3)=C2C)CC1 | 681 s |
| Cc1ccc(CN2CCC(c3nc(-c4cnccn4)n[nH]3)CC2)s1 | 570 s |
| c1ccc(COCCc2noc(C3CN(Cc4ccncc4)C3)n2)cc1 | 605 s |
| Cc1noc2nc(CCC(=O)NCCCc3ccccc3)nc(N3CCCC3)c12 | 765 s |
| COc1ccc(NC(=O)N2CCC3(CC2)N=C(c2ccc(F)cc2)C(=O)N3)c(OC)c1 | 773 s |
| O=C(CCc1c(-c2ccc(F)cc2)nc2ccccn12)NC1CC1 | 587 s |
| Cn1nc(CNC(=O)C2(c3ccccc3)CC2)c2c1CCN(S(C)(=O)=O)C2 | 694 s |
| Cc1sc(NC(=O)c2ccc(S(=O)(=O)N(C)C)cc2)nc1-c1ccc2c(c1)N(C)C(=O)CO2 | 938 s |
| Cc1ccc2c(c1)C(C)(C)C(=O)N2CC(=O)NCc1cccnc1 | 612 s |
| O=C(Cc1cccs1)N1CCC(c2noc(-c3ccncc3)n2)C1 (stereo not given) | 702 s |
| COc1ccc(-c2ccc(/C=C3/SC(N4CCCCC4)=NC3=O)o2)cc1 | 1020 s |
| COc1ccc(Cl)cc1C(=O)Nc1cnc(N2CCCC2)nc1 | 818 s |
| COc1ccc(OCC(=O)N2CCN(c3cc(=O)n(C)c(=O)n3C)CC2)cc1 | 655 s |
| CNCc1cc(-c2ccccc2F)n(S(=O)(=O)c2cccnc2)c1 | 682 s |
| CCOc1ccc2nc(Nc3ncc4c(n3)CC(c3cccc(Cl)c3)CC4=O)nc(C)c2c1 (stereo not given) | 899 s |
| COC(=O)N1CCN(CCNC(=O)Cc2cccc3ccccc23)CC1 | 574 s |
| Cc1sc(-n2c(C)c3c(C)nnc(C)c3c2C)nc1-c1ccccc1 | 687 s |
| COC(=O)c1c(NCc2cccc(Br)c2)c2cc(F)ccc2[nH]c1=O | 831 s |
| COc1ccc(OCc2nn3c(-c4ccoc4C)nnc3s2)cc1 | 900 s |
| COCCN1CC2(CCN(S(=O)(=O)c3c(C)cc(C)cc3C)CC2)C1c1ccccc1 (stereo not given) | 808 s |
| O=C(c1cnn(-c2ccccc2)c1-n1cccc1)N1CCN(c2ccccn2)CC1 | 623 s |

| Structure (SMILES) | RP-LC retention time |
| --- | --- |
| COc1cc(OC)cc(-c2nc(C3CC(=O)N(c4ccc(F)c(Cl)c4)C3)no2)c1 (stereo not given) | 1110 s |
| Cc1ccc(C)c(N2CCN(C(=O)c3ccc(C)c(NC(=O)C4=CSCCO4)c3)CC2)c1 | 1070 s |
| CCc1ccc(NC(=O)N2CCC(n3c(-c4ccco4)nc4cccnc43)C2)cc1 (stereo not given) | 816 s |
| COc1ccc(CNC(=O)c2c(O)c3cccnc3[nH]c2=O)cc1 | 892 s |
| COc1ccc(-c2nc3cc(C)ccn3c2NC(=O)COc2ccc(Cl)cc2)cc1OC | 714 s |
| COc1ccccc1-c1nc(-c2ccc(S(=O)(=O)N3CCCCC3)cc2)no1 | 1220 s |
| O=C(c1cccnc1)N1CCCN(c2nnc3ccc(Cl)cn23)CC1 | 559 s |
| Cc1ccc(NC(=O)N(C)CCc2noc(COc3ccc(F)cc3)n2)cc1 | 926 s |
| Cc1ccc(-c2ocnc2C(=O)Nc2ccc(Br)cc2F)o1 | 1290 s |
| O=C(Cn1cnc2c(sc3nc(-c4ccccc4)ccc32)c1=O)NCCC1=CCCCC1 | 1090 s |
| Cc1nnc(SCC(=O)c2ccc3c(c2)OCCO3)s1 | 746 s |
| O=C(NC1CCCCCCC1)C1CCCN(c2nc3ccccc3n(Cc3ccccc3)c2=O)C1 (stereo not given) | 1370 s |
| O=C(c1cc2ccccc2o1)N1CC(c2nc(-c3cccnc3)no2)C1 | 709 s |
| Nc1ncnc2c1nc(Br)n2C1O[C@H]2COP(=O)(O)O[C@@H]2[C@@H]1O (stereo not given in full) | 549 s |
| Cc1cc2nc(SCc3noc(CCC(=O)Nc4nc(-c5ccccc5)cs4)n3)[nH]c2cc1C | 814 s |
| CC(C)C1c2nccn2CCCN1C(=O)CCn1cccn1 (stereo not given) | 574 s |
| CCCn1cc(CCNS(=O)(=O)c2ccc(F)cc2Cl)c2cccnc21 | 877 s |
| Cc1nnc(NC(=O)Cn2cnc(-c3cccs3)cc2=O)s1 | 630 s |
| CC(=O)N1CCN(c2nccc(-n3nc(C)cc3C)n2)CC1 | 716 s |
| COc1ccc(NC(=O)Cn2nc3c(Oc4cccc(Cl)c4)nccn3c2=O)cc1 | 859 s |
| Cc1cc2c(cc1S(=O)(=O)NC1CC1)N(C(=O)C1CCC1)CC2 | 844 s |
